Data from patent US20020137929A1, “1 - (3-heterocyclylphenyl) isothiourea, -isourea, -guanidine and -amidine herbicidal agents” (Intellectual Property Department, BASF Aktiengesellschaft, priority 1998, published 2002).

What was measured:
AMBEL (Ragweed, Common) [1] = assay: Preemergence herbicidal evaluation; assay type: in vivo, Ambrosia artemisifolia; conditions: rated 4-5 weeks after treatment
In short: (§1)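 Seeds were planted in potting soil in cups, then sprayed preemergence with the test compound in aqueous acetone at about 0.0156 to 0.500 kg per hectare. Cups were kept under greenhouse conditions and visually rated 4–5 weeks after treatment on a 0–9 scale against an untreated control.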

[2] = system: IPOHE (Morningglory, Ivyleaf); assay: Preemergence herbicidal evaluation; assay type: in vivo, Ipomoea hederacea; conditions: rated 4-5 weeks after treatment
In short: as §1

[3] = system: IPOHE (Morningglory, Ivyleaf); assay: Postemergence herbicidal evaluation; assay type: in vivo, Ipomoea hederacea
In short: (§2)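 Herbicidal effect was judged by eye on a 0–9 scale covering stand, vigor, deformity, size and chlorosis, compared with controls, four to five weeks after seedlings about two weeks old were sprayed (40 psi, ~0.0156–0.500 kg/ha).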

ABUTH (Velvetleaf) = assay: Preemergence herbicidal evaluation; assay type: in vivo, Abutilon theophrasti; conditions: rated 4-5 weeks after treatment
In short: as §1

[4] = system: GLXMAW (Soybean, Williams); assay: Postemergence herbicidal evaluation; assay type: in vivo, Glycine max, (L.) Merr. cv Williams
In short: as §2

[5] = system: TRZAWR (Wheat, Winter, cv Riband); assay: Postemergence herbicidal evaluation; assay type: in vivo, Triticum aestivum
In short: as §2

ECHCG (Barnyardgrass) = assay: Postemergence herbicidal evaluation; assay type: in vivo, Echinochloa crus-galli
In short: as §2

[6] = system: GLXMAW (Soybean, Williams); assay: Preemergence herbicidal evaluation; assay type: in vivo, Glycine max, (L.) Merr. cv Williams; conditions: rated 4-5 weeks after treatment
In short: as §1

[7] = system: SAGPY (Arrowhead (Pygmaea)); assay: Preemergence weed control under flooded paddy conditions; assay type: in vivo, Sagittaria pygmaea; conditions: rated 3-4 weeks after treatment
In short: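 Silt loam, seeds in top 0.5 cm; flood held 1.5-3 cm; test cpd as acetone/water 50/50 into flood water, ~0.0313-0.500 kg/ha a.i.; greenhouse 3-4 wk; visual 0-9 score vs control.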

CASOB (Sicklepod) [8] = assay: Postemergence herbicidal evaluation; assay type: in vivo, Cassia obtusifolia
In short: as §2

[9] = system: CHEAL (Lambsquarters, Common); assay: Preemergence herbicidal evaluation; assay type: in vivo, Chenopodium album; conditions: rated 4-5 weeks after treatment
In short: as §1

[10] = system: CHEAL (Lambsquarters, Common); assay: Postemergence herbicidal evaluation; assay type: in vivo, Chenopodium album
In short: as §2

CASOB (Sicklepod) [11] = assay: Preemergence herbicidal evaluation; assay type: in vivo, Cassia obtusifolia; conditions: rated 4-5 weeks after treatment
In short: as §1

AMBEL (Ragweed, Common) [12] = assay: Postemergence herbicidal evaluation; assay type: in vivo, Ambrosia artemisifolia
In short: as §2

ORYSAT (Rice, Tebonnet) = assay: Preemergence herbicidal evaluation; assay type: in vivo, Oryza sativa, (L.) Tebonnet; conditions: rated 4-5 weeks after treatment
In short: as §1

## CCOP(=O)(CN1C(=O)CSC1=Nc1cc(-n2c(=O)cc(C(F)(F)F)n(C)c2=O)c(F)cc1Cl)OCC [Compound 35, Diethyl {{2-{{2-chloro-5-[3,6-dihydro-3-methyl-2,6-dioxo-4-(trifluoromethyl)-1(2H)-pyrimidinyl]-4-fluorophenyl}imino}-4-oxo-3-thiazolidinyl}methyl}phosphonate]
AMBEL (Ragweed, Common) [1]; rate 0.0625 kg/ha
  Preemergence herbicidal rating AMBEL: 0.0
AMBEL (Ragweed, Common) [1]; rate 0.1250 kg/ha
  Preemergence herbicidal rating AMBEL: 3.0
AMBEL (Ragweed, Common) [1]; rate 0.2500 kg/ha
  Preemergence herbicidal rating AMBEL: 9.0
[2]; rate 0.0625 kg/ha
  Preemergence herbicidal rating IPOHE: 0.0
[2]; rate 0.1250 kg/ha
  Preemergence herbicidal rating IPOHE: 3.0
[2]; rate 0.2500 kg/ha
  Preemergence herbicidal rating IPOHE: 9.0
[3]; Rate 0.0158 kg/ha
  Postemergence herbicidal rating IPOHE: 9.0
[3]; Rate 0.0315 kg/ha
  Postemergence herbicidal rating IPOHE: 9.0
[3]; Rate 0.0630 kg/ha
  Postemergence herbicidal rating IPOHE: 9.0
ABUTH (Velvetleaf); rate 0.0625 kg/ha
  Preemergence herbicidal rating ABUTH: 9.0
ABUTH (Velvetleaf); rate 0.1250 kg/ha
  Preemergence herbicidal rating ABUTH: 9.0
ABUTH (Velvetleaf); rate 0.2500 kg/ha
  Preemergence herbicidal rating ABUTH: 9.0
[4]; Rate 0.0158 kg/ha
  Postemergence herbicidal rating GLXMAW: 7.0
[4]; Rate 0.0315 kg/ha
  Postemergence herbicidal rating GLXMAW: 7.5
[4]; Rate 0.0630 kg/ha
  Postemergence herbicidal rating GLXMAW: 9.0
[5]; Rate 0.0158 kg/ha
  Postemergence herbicidal rating TRZAWR: 2.5
[5]; Rate 0.0315 kg/ha
  Postemergence herbicidal rating TRZAWR: 3.0
[5]; Rate 0.0630 kg/ha
  Postemergence herbicidal rating TRZAWR: 3.5
ECHCG (Barnyardgrass); Rate 0.0158 kg/ha
  Postemergence herbicidal rating ECHCG: 0.0
ECHCG (Barnyardgrass); Rate 0.0315 kg/ha
  Postemergence herbicidal rating ECHCG: 0.0
ECHCG (Barnyardgrass); Rate 0.0630 kg/ha
  Postemergence herbicidal rating ECHCG: 1.0
[6]; rate 0.0625 kg/ha
  Preemergence herbicidal rating GLXMAW: 0.0
[6]; rate 0.1250 kg/ha
  Preemergence herbicidal rating GLXMAW: 0.0
[6]; rate 0.2500 kg/ha
  Preemergence herbicidal rating GLXMAW: 2.0
[7]; 0.1250 kg/ha
  Herbicidal rating SAGPY: 0.0
[7]; 0.2500 kg/ha
  Herbicidal rating SAGPY: 3.0
CASOB (Sicklepod) [8]; Rate 0.0158 kg/ha
  Postemergence herbicidal rating CASOB: 0.0
CASOB (Sicklepod) [8]; Rate 0.0315 kg/ha
  Postemergence herbicidal rating CASOB: 3.0
CASOB (Sicklepod) [8]; Rate 0.0630 kg/ha
  Postemergence herbicidal rating CASOB: 9.0
[9]; rate 0.0625 kg/ha
  Preemergence herbicidal rating CHEAL: 9.0
[9]; rate 0.1250 kg/ha
  Preemergence herbicidal rating CHEAL: 9.0
[9]; rate 0.2500 kg/ha
  Preemergence herbicidal rating CHEAL: 9.0
[10]; Rate 0.0158 kg/ha
  Postemergence herbicidal rating CHEAL: 7.0
[10]; Rate 0.0315 kg/ha
  Postemergence herbicidal rating CHEAL: 9.0
[10]; Rate 0.0630 kg/ha
  Postemergence herbicidal rating CHEAL: 9.0
CASOB (Sicklepod) [11]; rate 0.0625 kg/ha
  Preemergence herbicidal rating CASOB: 0.0
CASOB (Sicklepod) [11]; rate 0.1250 kg/ha
  Preemergence herbicidal rating CASOB: 0.0
CASOB (Sicklepod) [11]; rate 0.2500 kg/ha
  Preemergence herbicidal rating CASOB: 3.0
AMBEL (Ragweed, Common) [12]; Rate 0.0158 kg/ha
  Postemergence herbicidal rating AMBEL: 9.0
AMBEL (Ragweed, Common) [12]; Rate 0.0315 kg/ha
  Postemergence herbicidal rating AMBEL: 9.0
AMBEL (Ragweed, Common) [12]; Rate 0.0630 kg/ha
  Postemergence herbicidal rating AMBEL: 9.0
ORYSAT (Rice, Tebonnet); rate 0.0625 kg/ha
  Preemergence herbicidal rating ORYSAT: 0.0
ORYSAT (Rice, Tebonnet); rate 0.1250 kg/ha
  Preemergence herbicidal rating ORYSAT: 0.0
ORYSAT (Rice, Tebonnet); rate 0.2500 kg/ha
  Preemergence herbicidal rating ORYSAT: 0.0

## CCOC(=O)CN1CCSC1=Nc1cc(-n2nc(C)n(C(F)F)c2=O)c(F)cc1Cl [Compound 36]
AMBEL (Ragweed, Common) [1]; rate 0.0625 kg/ha
  Preemergence herbicidal rating AMBEL: 0.0
AMBEL (Ragweed, Common) [1]; rate 0.1250 kg/ha
  Preemergence herbicidal rating AMBEL: 0.0
AMBEL (Ragweed, Common) [1]; rate 0.2500 kg/ha
  Preemergence herbicidal rating AMBEL: 9.0
[2]; rate 0.0625 kg/ha
  Preemergence herbicidal rating IPOHE: 0.0
[2]; rate 0.1250 kg/ha
  Preemergence herbicidal rating IPOHE: 0.0
[2]; rate 0.2500 kg/ha
  Preemergence herbicidal rating IPOHE: 0.0
[3]; Rate 0.0158 kg/ha
  Postemergence herbicidal rating IPOHE: 9.0
[3]; Rate 0.0315 kg/ha
  Postemergence herbicidal rating IPOHE: 9.0
[3]; Rate 0.0630 kg/ha
  Postemergence herbicidal rating IPOHE: 9.0
ABUTH (Velvetleaf); rate 0.0625 kg/ha
  Preemergence herbicidal rating ABUTH: 9.0
ABUTH (Velvetleaf); rate 0.1250 kg/ha
  Preemergence herbicidal rating ABUTH: 9.0
ABUTH (Velvetleaf); rate 0.2500 kg/ha
  Preemergence herbicidal rating ABUTH: 9.0
[4]; Rate 0.0158 kg/ha
  Postemergence herbicidal rating GLXMAW: 5.0
[4]; Rate 0.0315 kg/ha
  Postemergence herbicidal rating GLXMAW: 5.5
[4]; Rate 0.0630 kg/ha
  Postemergence herbicidal rating GLXMAW: 8.0
[5]; Rate 0.0158 kg/ha
  Postemergence herbicidal rating TRZAWR: 1.5
[5]; Rate 0.0315 kg/ha
  Postemergence herbicidal rating TRZAWR: 2.5
[5]; Rate 0.0630 kg/ha
  Postemergence herbicidal rating TRZAWR: 3.5
ECHCG (Barnyardgrass); Rate 0.0158 kg/ha
  Postemergence herbicidal rating ECHCG: 0.0
ECHCG (Barnyardgrass); Rate 0.0315 kg/ha
  Postemergence herbicidal rating ECHCG: 2.0
ECHCG (Barnyardgrass); Rate 0.0630 kg/ha
  Postemergence herbicidal rating ECHCG: 9.0
[6]; rate 0.0625 kg/ha
  Preemergence herbicidal rating GLXMAW: 0.0
[6]; rate 0.1250 kg/ha
  Preemergence herbicidal rating GLXMAW: 0.0
[6]; rate 0.2500 kg/ha
  Preemergence herbicidal rating GLXMAW: 0.0
[7]; 0.0313 kg/ha
  Herbicidal rating SAGPY: 0.0
[7]; 0.0625 kg/ha
  Herbicidal rating SAGPY: 0.0
[7]; 0.1250 kg/ha
  Herbicidal rating SAGPY: 3.0
[7]; 0.2500 kg/ha
  Herbicidal rating SAGPY: 9.0
CASOB (Sicklepod) [8]; Rate 0.0158 kg/ha
  Postemergence herbicidal rating CASOB: 0.0
CASOB (Sicklepod) [8]; Rate 0.0315 kg/ha
  Postemergence herbicidal rating CASOB: 0.0
CASOB (Sicklepod) [8]; Rate 0.0630 kg/ha
  Postemergence herbicidal rating CASOB: 0.0
[9]; rate 0.0625 kg/ha
  Preemergence herbicidal rating CHEAL: 0.0
[9]; rate 0.1250 kg/ha
  Preemergence herbicidal rating CHEAL: 9.0
[9]; rate 0.2500 kg/ha
  Preemergence herbicidal rating CHEAL: 9.0
[10]; Rate 0.0158 kg/ha
  Postemergence herbicidal rating CHEAL: 2.0
[10]; Rate 0.0315 kg/ha
  Postemergence herbicidal rating CHEAL: 3.0
[10]; Rate 0.0630 kg/ha
  Postemergence herbicidal rating CHEAL: 4.0
CASOB (Sicklepod) [11]; rate 0.0625 kg/ha
  Preemergence herbicidal rating CASOB: 0.0
CASOB (Sicklepod) [11]; rate 0.2500 kg/ha
  Preemergence herbicidal rating CASOB: 0.0
AMBEL (Ragweed, Common) [12]; Rate 0.0158 kg/ha
  Postemergence herbicidal rating AMBEL: 2.0
AMBEL (Ragweed, Common) [12]; Rate 0.0315 kg/ha
  Postemergence herbicidal rating AMBEL: 3.0
AMBEL (Ragweed, Common) [12]; Rate 0.0630 kg/ha
  Postemergence herbicidal rating AMBEL: 9.0
ORYSAT (Rice, Tebonnet); rate 0.0625 kg/ha
  Preemergence herbicidal rating ORYSAT: 0.0
ORYSAT (Rice, Tebonnet); rate 0.1250 kg/ha
  Preemergence herbicidal rating ORYSAT: 0.0
ORYSAT (Rice, Tebonnet); rate 0.2500 kg/ha
  Preemergence herbicidal rating ORYSAT: 4.0
